Measured values: the kinase profiling compilation of Christmann-Franck et al. (2016)

Tests used:
Experiment in all cases: radiometric filter-binding kinase assay
[1] = test system: PRKAA1 or PRKAA2 (rat); conditions: accession and sequence are those of the human protein
[2] = biological target: EPHB1 (human) (UniProt P54762)
[3] = biological target: PIM2 (human) (UniProt Q9P1W9)
[4] = biological target: MAPK15 (human) (UniProt Q8TD08)
[5] = test system: AKT2 (human), P31751 [S474D]
[6] = biological target: MKNK2 (human) (UniProt Q9HBH9)
[7] = biological target: CSNK1D (human) (UniProt P48730)
Chain of CSNK1D (human) (P48730 whole entry, looked up): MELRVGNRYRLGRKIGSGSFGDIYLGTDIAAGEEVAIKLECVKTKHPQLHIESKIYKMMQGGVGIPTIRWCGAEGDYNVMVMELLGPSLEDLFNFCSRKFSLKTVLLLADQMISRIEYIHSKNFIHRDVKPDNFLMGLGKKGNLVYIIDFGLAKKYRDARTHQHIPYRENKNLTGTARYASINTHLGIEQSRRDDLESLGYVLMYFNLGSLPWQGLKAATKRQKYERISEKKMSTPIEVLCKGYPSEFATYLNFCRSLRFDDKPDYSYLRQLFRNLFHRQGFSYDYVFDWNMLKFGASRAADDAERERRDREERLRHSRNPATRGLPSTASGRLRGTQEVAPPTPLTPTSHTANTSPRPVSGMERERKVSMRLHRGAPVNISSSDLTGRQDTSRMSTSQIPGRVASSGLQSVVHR

[8] = biological target: CHEK2 (human) (UniProt O96017)
[9] = biological target: MAPKAPK3 (human) (UniProt Q16644)
[10] = biological target: MAPK14 (human) (UniProt Q16539)
[11] = biological target: EPHA4 (human) (UniProt P54764)
Chain of EPHA4 (human) (P54764 whole entry, looked up): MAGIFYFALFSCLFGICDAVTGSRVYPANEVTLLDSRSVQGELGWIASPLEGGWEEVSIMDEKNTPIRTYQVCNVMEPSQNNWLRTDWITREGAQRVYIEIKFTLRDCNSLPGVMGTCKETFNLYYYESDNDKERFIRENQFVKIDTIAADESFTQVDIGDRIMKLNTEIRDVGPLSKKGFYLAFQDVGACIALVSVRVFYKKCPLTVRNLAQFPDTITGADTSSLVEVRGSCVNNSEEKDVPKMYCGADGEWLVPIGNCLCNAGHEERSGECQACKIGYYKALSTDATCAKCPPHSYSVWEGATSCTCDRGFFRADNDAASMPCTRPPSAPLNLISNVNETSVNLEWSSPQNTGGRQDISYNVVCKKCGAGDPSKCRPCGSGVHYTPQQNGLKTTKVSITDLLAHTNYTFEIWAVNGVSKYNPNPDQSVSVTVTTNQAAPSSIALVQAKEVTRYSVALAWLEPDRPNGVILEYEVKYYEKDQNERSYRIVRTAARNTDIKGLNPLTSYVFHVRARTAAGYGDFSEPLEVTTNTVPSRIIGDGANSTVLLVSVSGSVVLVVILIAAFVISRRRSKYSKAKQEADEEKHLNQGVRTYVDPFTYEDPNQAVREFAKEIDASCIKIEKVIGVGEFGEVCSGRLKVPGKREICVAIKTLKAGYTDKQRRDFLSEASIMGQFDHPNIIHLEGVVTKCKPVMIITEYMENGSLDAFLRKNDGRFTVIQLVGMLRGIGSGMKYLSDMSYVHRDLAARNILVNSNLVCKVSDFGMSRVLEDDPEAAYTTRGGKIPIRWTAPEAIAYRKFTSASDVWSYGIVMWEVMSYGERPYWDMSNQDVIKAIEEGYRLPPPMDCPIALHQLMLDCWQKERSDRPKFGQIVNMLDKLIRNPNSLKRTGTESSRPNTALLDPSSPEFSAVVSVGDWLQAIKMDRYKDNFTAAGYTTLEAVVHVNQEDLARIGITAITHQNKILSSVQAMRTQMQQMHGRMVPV

[12] = biological target: TTK (human) (UniProt P33981)
[13] = biological target: INSRR (human) (UniProt P14616)
[14] = biological target: PLK1 (human) (UniProt P53350)
[15] = biological target: IKBKE (human) (UniProt Q14164)
Chain of IKBKE (human) (Q14164 whole entry, looked up): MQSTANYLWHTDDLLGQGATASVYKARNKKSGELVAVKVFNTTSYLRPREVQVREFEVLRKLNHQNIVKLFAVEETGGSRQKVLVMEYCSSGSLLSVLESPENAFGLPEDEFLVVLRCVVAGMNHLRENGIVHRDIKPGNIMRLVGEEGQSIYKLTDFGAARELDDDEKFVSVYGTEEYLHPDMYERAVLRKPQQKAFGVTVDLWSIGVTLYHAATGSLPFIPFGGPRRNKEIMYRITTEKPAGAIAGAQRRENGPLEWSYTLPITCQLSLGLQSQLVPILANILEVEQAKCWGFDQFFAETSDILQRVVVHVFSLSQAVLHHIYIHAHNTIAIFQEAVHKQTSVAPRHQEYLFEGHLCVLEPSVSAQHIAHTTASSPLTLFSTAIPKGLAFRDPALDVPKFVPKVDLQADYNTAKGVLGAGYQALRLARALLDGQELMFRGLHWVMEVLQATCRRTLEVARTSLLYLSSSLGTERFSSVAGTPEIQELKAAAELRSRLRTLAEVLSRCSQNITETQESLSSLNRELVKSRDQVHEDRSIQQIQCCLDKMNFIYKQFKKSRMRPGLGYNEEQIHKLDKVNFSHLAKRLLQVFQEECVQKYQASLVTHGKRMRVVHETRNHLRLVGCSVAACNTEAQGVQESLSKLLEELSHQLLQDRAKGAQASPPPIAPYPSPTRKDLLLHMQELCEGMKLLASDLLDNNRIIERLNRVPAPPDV

[16] = biological target: IKBKB (human) (UniProt O14920)
[17] = biological target: PAK7 (human) (UniProt Q9P286)
[18] = biological target: CDK2 CCNA2 (human) (UniProt P20248+P24941)
[19] = biological target: NEK2 (human) (UniProt P51955)
[20] = biological target: NEK6 (human) (UniProt Q9HC98)
[21] = biological target: PRKACA (human) (UniProt P17612)
[22] = biological target: MAPK3 (human) (UniProt P27361)
[23] = biological target: MAP2K1 (human) (UniProt Q02750)
[24] = biological target: EPHB4 (human) (UniProt P54760)
[25] = biological target: CSK (human) (UniProt P41240)
[26] = biological target: MAPK1 (human) (UniProt P28482)
[27] = biological target: RPS6KA3 KD1 KD2 (human) (UniProt P51812)
[28] = biological target: RPS6KA5 KD1 KD2 (human) (UniProt O75582)
[29] = biological target: RPS6KA1 KD1 KD2 (human) (UniProt Q15418)
[30] = biological target: RIPK2 (human) (UniProt O43353)
Chain of RIPK2 (human) (O43353 whole entry, looked up): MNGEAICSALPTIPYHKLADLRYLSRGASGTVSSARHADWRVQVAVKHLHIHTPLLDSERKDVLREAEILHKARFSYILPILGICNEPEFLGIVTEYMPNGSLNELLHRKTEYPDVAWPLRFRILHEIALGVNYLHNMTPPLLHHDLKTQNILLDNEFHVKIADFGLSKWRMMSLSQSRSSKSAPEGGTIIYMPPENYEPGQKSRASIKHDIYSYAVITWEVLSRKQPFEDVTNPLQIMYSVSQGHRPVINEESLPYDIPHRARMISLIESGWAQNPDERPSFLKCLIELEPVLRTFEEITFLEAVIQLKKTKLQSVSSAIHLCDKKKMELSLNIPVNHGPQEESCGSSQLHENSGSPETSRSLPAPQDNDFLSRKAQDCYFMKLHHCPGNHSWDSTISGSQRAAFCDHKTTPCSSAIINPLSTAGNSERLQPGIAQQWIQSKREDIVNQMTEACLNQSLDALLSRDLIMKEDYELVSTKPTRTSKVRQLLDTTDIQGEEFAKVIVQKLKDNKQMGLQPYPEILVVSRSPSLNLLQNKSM

[31] = test system: RPS6KB1 (human), P23443 [T412E]
Chain of RPS6KB1 (human), P23443 [T412E] (P23443 whole entry T412E, looked up): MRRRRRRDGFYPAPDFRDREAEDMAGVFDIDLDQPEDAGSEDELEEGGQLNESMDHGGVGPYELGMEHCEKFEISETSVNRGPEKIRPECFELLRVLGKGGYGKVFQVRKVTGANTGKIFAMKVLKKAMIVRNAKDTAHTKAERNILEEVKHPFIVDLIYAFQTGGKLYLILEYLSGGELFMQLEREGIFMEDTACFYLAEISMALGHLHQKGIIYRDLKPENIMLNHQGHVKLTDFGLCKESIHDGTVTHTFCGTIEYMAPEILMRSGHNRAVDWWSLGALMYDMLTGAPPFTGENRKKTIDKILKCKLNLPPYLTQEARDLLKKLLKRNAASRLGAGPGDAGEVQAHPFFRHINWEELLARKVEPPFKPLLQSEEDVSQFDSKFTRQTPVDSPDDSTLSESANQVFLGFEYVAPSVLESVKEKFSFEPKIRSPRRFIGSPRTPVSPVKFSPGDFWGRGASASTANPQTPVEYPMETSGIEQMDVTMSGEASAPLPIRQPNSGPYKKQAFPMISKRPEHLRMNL

[32] = biological target: SYK (human) (UniProt P43405)
[33] = biological target: FLT1 (human) (UniProt P17948)
Chain of FLT1 (human) (P17948 whole entry, looked up): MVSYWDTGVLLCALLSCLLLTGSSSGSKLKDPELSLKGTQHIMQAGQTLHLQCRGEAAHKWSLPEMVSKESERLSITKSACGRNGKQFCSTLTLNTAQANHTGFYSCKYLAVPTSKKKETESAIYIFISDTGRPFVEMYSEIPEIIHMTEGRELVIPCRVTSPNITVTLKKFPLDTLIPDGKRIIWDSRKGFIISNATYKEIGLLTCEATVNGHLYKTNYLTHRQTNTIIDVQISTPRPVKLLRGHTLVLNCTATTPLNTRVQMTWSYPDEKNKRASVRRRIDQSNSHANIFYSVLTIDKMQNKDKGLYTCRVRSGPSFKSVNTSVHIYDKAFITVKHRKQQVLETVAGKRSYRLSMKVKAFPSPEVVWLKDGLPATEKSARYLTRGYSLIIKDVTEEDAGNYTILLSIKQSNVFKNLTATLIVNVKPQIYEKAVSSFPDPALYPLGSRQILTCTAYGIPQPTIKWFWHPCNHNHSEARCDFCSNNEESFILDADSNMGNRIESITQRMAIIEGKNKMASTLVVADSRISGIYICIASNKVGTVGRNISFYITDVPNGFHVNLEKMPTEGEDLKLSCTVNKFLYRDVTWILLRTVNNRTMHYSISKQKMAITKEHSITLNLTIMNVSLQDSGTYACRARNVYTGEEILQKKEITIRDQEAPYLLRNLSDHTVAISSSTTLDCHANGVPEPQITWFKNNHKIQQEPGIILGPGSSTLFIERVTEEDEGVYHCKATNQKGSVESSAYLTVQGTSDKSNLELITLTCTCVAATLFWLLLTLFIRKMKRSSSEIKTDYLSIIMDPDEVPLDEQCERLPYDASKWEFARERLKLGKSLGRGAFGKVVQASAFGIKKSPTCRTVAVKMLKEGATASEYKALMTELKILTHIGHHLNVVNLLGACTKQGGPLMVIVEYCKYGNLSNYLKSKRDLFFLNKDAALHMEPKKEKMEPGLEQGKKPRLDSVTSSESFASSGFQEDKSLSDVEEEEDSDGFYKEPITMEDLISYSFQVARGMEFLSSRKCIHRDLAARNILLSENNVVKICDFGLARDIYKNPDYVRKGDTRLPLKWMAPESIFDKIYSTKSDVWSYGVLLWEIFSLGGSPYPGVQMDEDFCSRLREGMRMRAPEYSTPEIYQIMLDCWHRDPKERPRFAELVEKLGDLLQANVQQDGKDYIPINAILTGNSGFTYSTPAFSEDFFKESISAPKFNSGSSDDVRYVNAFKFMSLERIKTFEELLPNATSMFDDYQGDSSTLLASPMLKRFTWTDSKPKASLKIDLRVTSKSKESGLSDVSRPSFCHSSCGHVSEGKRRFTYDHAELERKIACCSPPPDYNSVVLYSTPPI

[34] = biological target: SRC (human) (UniProt P12931); conditions: compound 10.0 µM
[35] = biological target: BTK (human) (UniProt Q06187); conditions: compound 10.0 µM

Chain of AKT2 (human), P31751 [S474D] (P31751 whole entry S474D, looked up): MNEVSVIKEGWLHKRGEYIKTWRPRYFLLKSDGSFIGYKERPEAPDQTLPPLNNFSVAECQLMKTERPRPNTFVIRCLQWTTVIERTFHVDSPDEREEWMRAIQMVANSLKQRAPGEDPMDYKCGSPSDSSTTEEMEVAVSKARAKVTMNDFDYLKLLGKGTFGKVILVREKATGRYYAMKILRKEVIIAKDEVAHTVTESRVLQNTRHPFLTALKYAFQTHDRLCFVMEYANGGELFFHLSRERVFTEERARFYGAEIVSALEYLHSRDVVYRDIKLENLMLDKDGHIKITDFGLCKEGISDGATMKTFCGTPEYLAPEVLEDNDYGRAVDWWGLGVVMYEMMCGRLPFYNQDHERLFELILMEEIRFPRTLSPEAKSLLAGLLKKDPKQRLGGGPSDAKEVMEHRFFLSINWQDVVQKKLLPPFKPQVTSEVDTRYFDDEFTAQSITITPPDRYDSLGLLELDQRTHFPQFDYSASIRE

C=CC(=O)N1CCC[C@@H](n2nc(-c3ccc(Oc4ccccc4)cc3)c3c(N)ncnc32)C1
residual activity ([1]; compound 0.1 µM): 88% | residual activity ([1]; compound 1.0 µM): 101% | residual activity ([1]; compound 10.0 µM): 78% | residual activity ([2]; compound 0.1 µM): 72% | residual activity ([2]; compound 1.0 µM): 90% | residual activity ([2]; compound 10.0 µM): 86% | residual activity ([3]; compound 0.1 µM): 99% | residual activity ([3]; compound 1.0 µM): 100% | residual activity ([3]; compound 10.0 µM): 97% | residual activity ([4]; compound 0.1 µM): 85% | residual activity ([4]; compound 1.0 µM): 98% | residual activity ([4]; compound 10.0 µM): 74% | residual activity ([5]; compound 0.1 µM): 80% | residual activity ([5]; compound 1.0 µM): 93% | residual activity ([5]; compound 10.0 µM): 71% | residual activity ([6]; compound 0.1 µM): 106% | residual activity ([6]; compound 10.0 µM): 67% | residual activity ([7]; compound 0.1 µM): 98% | residual activity ([7]; compound 1.0 µM): 111% | residual activity ([7]; compound 10.0 µM): 115% | residual activity ([8]; compound 0.1 µM): 92% | residual activity ([8]; compound 1.0 µM): 77% | residual activity ([8]; compound 10.0 µM): 35% | residual activity ([9]; compound 0.1 µM): 109% | residual activity ([9]; compound 1.0 µM): 109% | residual activity ([10]; compound 0.1 µM): 99% | residual activity ([10]; compound 1.0 µM): 103% | residual activity ([10]; compound 10.0 µM): 101% | residual activity ([11]; compound 1.0 µM): 92% | residual activity ([11]; compound 10.0 µM): 45% | residual activity ([12]; compound 0.1 µM): 95% | residual activity ([12]; compound 1.0 µM): 101% | residual activity ([12]; compound 10.0 µM): 82% | residual activity ([13]; compound 0.1 µM): 94% | residual activity ([13]; compound 1.0 µM): 101% | residual activity ([13]; compound 10.0 µM): 29% | residual activity ([14]; compound 0.1 µM): 88% | residual activity ([14]; compound 1.0 µM): 95% | residual activity ([14]; compound 10.0 µM): 76% | residual activity ([15]; compound 0.1 µM): 100% | residual activity ([15]; compound 1.0 µM): 95% | residual activity ([15]; compound 10.0 µM): 66% | residual activity ([16]; compound 0.1 µM): 94% | residual activity ([16]; compound 1.0 µM): 107% | residual activity ([16]; compound 10.0 µM): 90% | residual activity ([17]; compound 0.1 µM): 93% | residual activity ([17]; compound 1.0 µM): 97% | residual activity ([17]; compound 10.0 µM): 50% | residual activity ([18]; compound 0.1 µM): 89% | residual activity ([18]; compound 1.0 µM): 99% | residual activity ([18]; compound 10.0 µM): 84% | residual activity ([19]; compound 0.1 µM): 93% | residual activity ([19]; compound 1.0 µM): 107% | residual activity ([19]; compound 10.0 µM): 35% | residual activity ([20]; compound 0.1 µM): 76% | residual activity ([20]; compound 1.0 µM): 99% | residual activity ([20]; compound 10.0 µM): 93% | residual activity ([21]; compound 0.1 µM): 89% | residual activity ([21]; compound 1.0 µM): 101% | residual activity ([21]; compound 10.0 µM): 97% | residual activity ([22]; compound 0.1 µM): 83% | residual activity ([22]; compound 10.0 µM): 84% | residual activity ([23]; compound 0.1 µM): 85% | residual activity ([23]; compound 1.0 µM): 76% | residual activity ([23]; compound 10.0 µM): 56% | residual activity ([24]; compound 0.1 µM): 83% | residual activity ([24]; compound 1.0 µM): 74% | residual activity ([24]; compound 10.0 µM): 39% | residual activity ([25]; compound 0.1 µM): 25% | residual activity ([25]; compound 1.0 µM): 15% | residual activity ([25]; compound 10.0 µM): 3% | residual activity ([26]; compound 0.1 µM): 94% | residual activity ([26]; compound 1.0 µM): 99% | residual activity ([26]; compound 10.0 µM): 90% | residual activity ([27]; compound 0.1 µM): 103% | residual activity ([27]; compound 1.0 µM): 106% | residual activity ([27]; compound 10.0 µM): 68% | residual activity ([28]; compound 0.1 µM): 94% | residual activity ([28]; compound 1.0 µM): 101% | residual activity ([28]; compound 10.0 µM): 55% | residual activity ([29]; compound 0.1 µM): 94% | residual activity ([29]; compound 1.0 µM): 101% | residual activity ([29]; compound 10.0 µM): 46% | residual activity ([30]; compound 0.1 µM): 21% | residual activity ([30]; compound 1.0 µM): 5% | residual activity ([30]; compound 10.0 µM): 2% | residual activity ([31]; compound 0.1 µM): 93% | residual activity ([31]; compound 1.0 µM): 86% | residual activity ([31]; compound 10.0 µM): 66% | residual activity ([32]; compound 0.1 µM): 90% | residual activity ([32]; compound 1.0 µM): 100% | residual activity ([32]; compound 10.0 µM): 52% | residual activity ([33]; compound 0.1 µM): 40% | residual activity ([33]; compound 1.0 µM): 7% | residual activity ([33]; compound 10.0 µM): 2%

O=S(=O)(c1ccc(F)c2nonc12)N1CCN(c2ncc(C(F)(F)F)cc2Cl)CC1
residual activity ([1]; compound 10.0 µM): 92% | residual activity ([2]; compound 10.0 µM): 117% | residual activity ([3]; compound 10.0 µM): 97% | residual activity ([4]; compound 10.0 µM): 79% | residual activity ([5]; compound 10.0 µM): 84% | residual activity ([6]; compound 10.0 µM): 92% | residual activity ([7]; compound 10.0 µM): 79% | residual activity ([8]; compound 10.0 µM): 93% | residual activity ([9]; compound 10.0 µM): 90% | residual activity ([10]; compound 10.0 µM): 74% | residual activity [34]: 111% | residual activity ([11]; compound 10.0 µM): 90% | residual activity ([12]; compound 10.0 µM): 80% | residual activity ([13]; compound 10.0 µM): 102% | residual activity [35]: 86% | residual activity ([14]; compound 10.0 µM): 99% | residual activity ([16]; compound 10.0 µM): 89% | residual activity ([17]; compound 10.0 µM): 92% | residual activity ([18]; compound 10.0 µM): 88% | residual activity ([19]; compound 10.0 µM): 102% | residual activity ([20]; compound 10.0 µM): 78% | residual activity ([21]; compound 10.0 µM): 103% | residual activity ([22]; compound 10.0 µM): 86% | residual activity ([23]; compound 10.0 µM): 99% | residual activity ([25]; compound 10.0 µM): 90% | residual activity ([26]; compound 10.0 µM): 90% | residual activity ([27]; compound 10.0 µM): 86% | residual activity ([29]; compound 10.0 µM): 90% | residual activity ([30]; compound 10.0 µM): 109% | residual activity ([31]; compound 10.0 µM): 95% | residual activity ([32]; compound 10.0 µM): 94% | residual activity ([33]; compound 10.0 µM): 78%
